Experiment [1] addresses T1, HCV polymerase 1A (Δ21 NS5B) (Hepatitis C virus genotype 1a, UniProt P27958).
T1 construct: 20 to 50nM Δ21 NS5B
The experiment can be described thus: HCV Polymerase Inhibition Assay (1a). The experiment is classed as biochemical. On the procedure: The reaction was initiated by the addition of 20μM CTP, 20μM ATP, 1μM ^3H-UTP (10mCi/umol), 5nM template RNA and 0.1 U/μl RNase inhibitor (RNasin, Promega), and allowed to proceed for 2 to 4h at room temperature. Reaction volume was 50μl. The reaction was terminated by the addition of 1 volume of 4mM spermine in 10mM Tris-Cl pH 8.0, 1mM EDTA. After incubation for at least 15 min at room temperature, the precipitated RNA was captured by filtering through a GF/B filter (Millipore) in a 96 well format. The filter plate was washed three times with 200μl each of 2mM spermine, 10mM Tris-Cl pH 8.0, lmM EDTA, and 2 times with ethanol. After air-drying, 30μl of Microscint 20 scintillation cocktail (Packard) was added to each well, and the retained cpm were determined by scintillation counting. […] Retained cpm were plotted vs. inhibitor concentration and fit to equation 1 using non-linear regression (ref. 1) to obtain the IC50 values: Retained cpm=A[sqrt{(IC50+It−Et)^2+4*IC50*Et}−([…])]
Ref. Morrison, J. F. and S. R. Stone. […] Approaches to the study and analysis of the inhibition of enzymes by slow- and tight-binding inhibitors. Comments Mol. Cell. Biophys.
(§1) The sequence of the template RNA used was: 5′-[…]-3′

Experiment [2] deals with T2, HCV polymerase 1B (Δ21 NS5B) (Hepatitis C virus genotype 1b, UniProt P26663).
T2 construct: 20 to 50nM Δ21 NS5B
Kind of experiment: biochemical. On the procedure:
Either two-fold serial dilutions (fractional inhibition assay) or a narrower range of dilutions spanning the IC50 of the inhibitor (tight binding assay) of the inhibitors were incubated with 20mM Tris-Cl pH 7.4, 2 mM MnCl2, 1 mM dithiothreitol, 1 mM ethylene diamine tetraacetic acid (EDTA), 60 to 125μM GTP and 20 to 50nM Δ21 NS5B (HCV Strain 1B (BK, Genbank accession number M58335, or H77, Genbank accession number AF011751)) for 15min at room temperature. The reaction was initiated by the addition of 20μM CTP, 20μM ATP, 1μM ^3H-UTP (10mCi/umol), 5nM template RNA and 0.1 U/μl RNase inhibitor (RNasin, Promega), and allowed to proceed for 2 to 4h at room temperature. Reaction volume was 50μl. The reaction was terminated by the addition of 1 volume of 4mM spermine in 10mM Tris-Cl pH 8.0, 1mM EDTA. After incubation for at least 15 min at room temperature, the precipitated RNA was captured by filtering through a GF/B filter (Millipore) in a 96 well format. The filter plate was washed three times with 200μl each of 2mM spermine, 10mM Tris-Cl pH 8.0, lmM EDTA, and 2 times with ethanol. After air-drying, 30μl of Microscint 20 scintillation cocktail (Packard) was added to each well, and the retained cpm were determined by scintillation counting. […] Retained cpm were plotted vs. inhibitor concentration and fit to equation 1 using non-linear regression (ref. 1) to obtain the IC50 values: Retained cpm=A[sqrt{(IC50+It−Et)^2+4*IC50*Et}−([…])]
Ref. Morrison, J. F. and S. R. Stone. 1985. Approaches to the study and analysis of the inhibition of enzymes by slow- and tight-binding inhibitors. Comments Mol. Cell. Biophys. 2: 347-368.
as §1

Experiment [3] has as its system genotype 1a-H77 subgenomic replicon cell line. Kind of experiment: microbe, parasite or virus in culture. The format is cell-based, HCV. Conditions: Hepatitis C virus, 72 h, read-out: EC50 1a.
The test system of experiment [4] is genotype 1b-Con1 subgenomic replicon cell line. The experiment can be described thus: microbe, parasite or virus in culture. The format is cell-based, HCV. The conditions noted are these: Hepatitis C virus, 72 h, read-out: EC50 1b.

T1 sequence (P27958 2421-2990, stated change not applied): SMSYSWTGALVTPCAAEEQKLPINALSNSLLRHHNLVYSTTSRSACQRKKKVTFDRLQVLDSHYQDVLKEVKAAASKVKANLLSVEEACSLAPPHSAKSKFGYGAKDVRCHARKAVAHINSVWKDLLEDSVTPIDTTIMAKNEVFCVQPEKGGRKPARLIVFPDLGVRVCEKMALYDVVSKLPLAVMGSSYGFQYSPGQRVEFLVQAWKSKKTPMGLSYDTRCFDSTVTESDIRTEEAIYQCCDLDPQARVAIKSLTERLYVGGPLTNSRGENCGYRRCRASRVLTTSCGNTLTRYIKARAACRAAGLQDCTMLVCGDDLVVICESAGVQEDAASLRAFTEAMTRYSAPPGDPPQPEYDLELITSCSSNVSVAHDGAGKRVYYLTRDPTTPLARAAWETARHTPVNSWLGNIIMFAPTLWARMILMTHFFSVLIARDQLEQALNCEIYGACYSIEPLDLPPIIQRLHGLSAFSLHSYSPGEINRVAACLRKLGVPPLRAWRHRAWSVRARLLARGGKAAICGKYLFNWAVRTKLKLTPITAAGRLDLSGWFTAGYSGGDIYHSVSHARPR
T2 sequence (P26663 2420-2989, stated change not applied): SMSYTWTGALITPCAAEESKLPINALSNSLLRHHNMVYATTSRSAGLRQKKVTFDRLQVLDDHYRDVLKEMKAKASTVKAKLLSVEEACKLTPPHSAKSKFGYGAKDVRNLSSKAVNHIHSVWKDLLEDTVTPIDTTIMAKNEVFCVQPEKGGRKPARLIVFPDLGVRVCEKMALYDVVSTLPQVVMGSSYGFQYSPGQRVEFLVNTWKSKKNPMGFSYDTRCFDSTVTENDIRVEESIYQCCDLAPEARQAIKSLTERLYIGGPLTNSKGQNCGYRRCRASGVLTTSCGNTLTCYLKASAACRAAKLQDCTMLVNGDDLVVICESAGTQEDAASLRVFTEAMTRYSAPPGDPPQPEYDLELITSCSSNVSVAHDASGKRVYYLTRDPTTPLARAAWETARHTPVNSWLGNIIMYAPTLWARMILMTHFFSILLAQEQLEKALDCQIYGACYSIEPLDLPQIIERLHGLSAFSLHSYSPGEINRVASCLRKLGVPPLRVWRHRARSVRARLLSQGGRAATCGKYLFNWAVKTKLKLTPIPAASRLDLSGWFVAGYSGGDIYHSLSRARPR

Turning to `COc1c(-c2ccc3nc(NS(C)(=O)=O)ccc3c2)cc(-n2ccc(=O)[nH]c2=O)cc1C(C)(C)C` [IB-L0-2.5, N-(6-(3-tert-butyl-5-(2,4-dioxo-3,4-dihydropyrimidin-1(2H)-yl)-2-methoxyphenyl)quinolin-2-yl)methanesulfonamide], the IC50 in experiment [1] and in experiment [2] was 10 to 100 nM throughout. In addition, the EC50 is 10 to 100 nM in experiment [3] and less than 10 nM in experiment [4].
Take `COc1c(-c2nc3cc(NS(C)(=O)=O)ccc3o2)cc(-n2ccc(=O)[nH]c2=O)cc1C(C)(C)C` [IB-L0-2.6, N-(2-(3-tert-butyl-5-(2,4-dioxo-3,4-dihydropyrimidin-1(2H)-yl)-2-methoxyphenyl)benzo[d]oxazol-5-yl)methanesulfonamide]: the IC50 in experiment [1] and in experiment [2] was 10 to 100 nM each time. Further, the EC50 lay within 100 to 1000 nM in experiment [3] and 10 to 100 nM in experiment [4].
On to `COc1c(-c2ccc3c(c2)CC[C@]3(F)CNS(C)(=O)=O)cc(-n2ccc(=O)[nH]c2=O)cc1C(C)(C)C` [IB-L0-2.10, (R)-N-((5-(3-tert-butyl-5-(2,4-dioxo-3,4-dihydropyrimidin-1 (2H)-yl)-2-methoxyphenyl)-1-fluoro-2,3-dihydro-1H-inden-1-yl)methyl)methanesulfonamide], for which the figures for the IC50 in experiment [1] and in experiment [2] were less than 10 nM and 10 to 100 nM, respectively. Also, the EC50 in experiment [3] and in experiment [4] was less than 10 nM each time.
For `COc1c(N2CCc3cc(NS(C)(=O)=O)ccc3C2)cc(-n2ccc(=O)[nH]c2=O)cc1C(C)(C)C` [IB-L0-2.19, N-(2-(3-tert-butyl-5-(2,4-dioxo-3,4-dihydropyrimidin-1(2H)-yl)-2-methoxyphenyl)-1,2,3,4-tetrahydroisoquinolin-6-yl)methanesulfonamide], the IC50 in experiment [1] was less than 10 nM; in experiment [2], 10 to 100 nM. Also, the EC50 in experiment [3] and in experiment [4] was 10 to 100 nM in each case.
In the case of `COc1c(-c2ccc3c(c2)CC[C@@]3(F)CNS(C)(=O)=O)cc(-n2ccc(=O)[nH]c2=O)cc1C(C)(C)C` [IB-L0-2.20, (S)-N-((5-(3-tert-butyl-5-(2,4-dioxo-3,4-dihydropyrimidin-1(2H)-yl)-2-methoxyphenyl)-1-fluoro-2,3-dihydro-1H-inden-1-yl)methyl)methanesulfonamide], the IC50 was less than 10 nM in experiment [1] and 10 to 100 nM in experiment [2]. In addition, the EC50 lay within 100 to 1000 nM in experiment [3] and 10 to 100 nM in experiment [4].
Consider `COc1c(-c2ccc3nc(NS(C)(=O)=O)cnc3c2)cc(-n2ccc(=O)[nH]c2=O)cc1C(C)(C)C` [IB-L0-2.26, N-(6-(3-tert-butyl-5-(2,4-dioxo-3,4-dihydropyrimidin-1(2H)-yl)-2-methoxyphenyl)quinoxalin-2-yl)methanesulfonamide], for which the IC50 in experiment [1] and in experiment [2] was 10 to 100 nM each time. Moreover, the EC50 in experiment [3] is greater than 1000 nM; in experiment [4], 100 to 1000 nM.
With `COc1c(-c2ccc3nc(N)sc3c2)cc(-n2ccc(=O)[nH]c2=O)cc1C(C)(C)C` [IB-L0-2.27, 1-(3-(2-aminobenzo[d]thiazol-6-yl)-5-tert-butyl-4-methoxy-phenyl)pyrimidine-2,4(1H,3H)-dione], the IC50 in experiment [1] and in experiment [2] was 10 to 100 nM throughout. The EC50 is 100 to 1000 nM in experiment [3] and 10 to 100 nM in experiment [4].
For the compound `COc1c(-c2ccc3nc(NS(C)(=O)=O)sc3c2)cc(-n2ccc(=O)[nH]c2=O)cc1C(C)(C)C` [IB-L0-2.28, N-(6-(3-tert-butyl-5-(2,4-dioxo-3,4-dihydropyrimidin-1(2H)-yl)-2-methoxyphenyl)benzo[d]thiazol-2-yl)methanesulfonamide], the IC50 in experiment [1] and in experiment [2] was 10 to 100 nM throughout. In addition, the EC50 in experiment [3] is greater than 1000 nM; in experiment [4], 100 to 1000 nM.
Take `COc1c(-c2ccc3c(c2)CNC3=O)cc(-n2ccc(=O)[nH]c2=O)cc1C(C)(C)C` [IB-L0-2.30, 1-(3-tert-butyl-4-methoxy-5-(1-oxoisoindolin-5-yl)phenyl)-pyrimidine-2,4(1H,3H)-dione]: the IC50 in experiment [1] and in experiment [2] was 10 to 100 nM throughout. In addition, the EC50 in experiment [3] lay within 100 to 1000 nM; in experiment [4] it was 10 to 100 nM.

The term IC50 denotes the concentration at which inhibition is half-maximal. Lower therefore signals higher potency. By EC50 is commonly meant the midpoint of the concentration-response curve.

(Values after patent publication US8501238B2, “Anti-infective agents and uses thereof” (priority 2007, dated 2013).)
